Laboratory results published in US20190083521A1, “COMBINATION THERAPY FOR TREATING CANCER” (Epizyme, Inc., priority 2014, published 2019).
Where a name gives a salt, the structure may show the parent alone.

What was measured:
Format in all cases: cell-based, human
MOLM-13 (MLL-AF9) cells = experiment: Combination proliferation assay with Compound A2 (CellTiter-Glo, Chou-Talalay CI); conditions: for Combination effect with Compound A2 (Table 4): MOLM-13 (MLL-AF9); for Combination effect with Compound A2 (Table 2): MOLM-13 MLL-AF9; for Combination effect with Compound A2: MOLM-13, 7 Day Cotreatment (Example 1)
Procedure: (§1) The acute myelogenous leukemia cell lines MV4-11 (MLL-AF4) and MOLM-13 (MLL-AF9) were obtained from American Type Culture Collection (ATCC; Rockville, Md.) and Deutsche Sammlung von Mikroorganismen and Zellkulturen (DSMZ; Braunschweig, Germany) respectively.
(§2) Studies were performed using MLL-rearranged cell lines in vitro to evaluate the anti-proliferative effect of a combination of two agents together on cell growth. Initial proliferation studies were performed to determine the IC50 of a given compound in each cell line. The cell counts were measured by ATP quantitation using the Promega Cell Titer Glo kit and luminescence values corresponded to the amount of ATP in a given well.
(§3) Compounds were evaluated for synergy in the co-treatment phase by testing the compounds in a concentration range which was bracketed around their IC50 values. The compounds were plated to a 96 well plate in a matrix format (FIG. 3) which includes increasing concentrations of each drug in the combination in a constant ratio, in addition to the effect of each compound alone in the study. Cells were seeded and grown in the log-linear phase for 3 or 7 days in the co-treatment phase. Minimum inhibition (DMSO alone) controls were used in each plate to calculate fraction affected (Fa) of a test well. DMSO concentration was kept at 0.1% v/v.
(§4) The drug combination analysis was performed utilizing the Chou-Talalay method Synergy was determined using the software package Calcusyn by Biosoft. The combination index (CI) is a quantitative term used to describe the level of synergy or antagonism in a given test system. A combination index less than one indicates synergy, and a CI greater than one indicates antagonism. Further, strong synergism is achieved when the CI value falls below 0.3.
(§5) The HP-D300 digital dispenser (Tecan) was used to dispense compounds in a combinatorial matrix. […] Cell viability was measured via ATP content using CellTiter-Glo® (Promega).
(§6) Viability was determined using CellTiter-Glo® (Promega).
Cell viability was measured via ATP content using CellTiter-Glo® (Promega).
as §2, with “Proliferation studies” for “Studies”, “MOLM-13, MV4-11 and SKM-1” for “MLL-rearranged”, “cancer cell killing” for “anti-proliferative”, “IC50 values” for “IC50”, “correspond” for “corresponded”
(§7) These studies were performed to evaluate both the combinatorial effect of compounds on cell killing and the durability of the effect by washing out one of the agents.
(§8) Compounds evaluated for synergy in the co-treatment phase were tested in a range which was bracketed around the IC50's. The compounds were plated to a 96 well plate in a matrix format which includes increasing concentrations of each drug in the combination in a constant ratio, in addition to the effect of each compound alone in the study. Cells were seeded and grown in the log-linear phase for 3 or 7 days in the cotreatment phase. Maximum and minimum inhibition (DMSO alone) controls were used in each plate to calculate fraction affected (Fa) of a test well. DMSO concentration was kept at 0.1% v/v. The drug combination analysis was performed utilizing the Chou-Talalay method. Synergy was determined using the software package Calcusyn by Biosoft. The combination index (CI) is the term used to describe the level of synergy or antagonism in a given test system. A combination index less than one indicates synergy, and a CI greater than one indicates antagonism.
(§9) The drug combination analysis was performed using the Chou-Talalay method. Graphs representing values of combination index (CI) versus Fractional effect (Fa) known as Fa-CI plots were generated and synergy was evaluated.

MV4-11 (MLL-AF4) cells = experiment: as above; conditions: for Combination effect with Compound A2 (Table 4): MV4-11 (MLL-AF4); for Combination effect with Compound A2 (Table 4) / Combination effect with Compound A2 (Table 5): 7 Day Cotreatment Model; for Combination effect with Compound A2 (Table 2): MV4-11 MLL-AF4; for Combination effect with Compound A2 / Combination effect with Compound A2 (Table 5): MV4-11; for Combination effect with Compound A2: 7 Day Cotreatment (Example 1)
Procedure: as §1, §2, §3, §4, §5, §6
as §2, with “Proliferation studies” for “Studies”, “MOLM-13, MV4-11 and SKM-1” for “MLL-rearranged”, “cancer cell killing” for “anti-proliferative”, “IC50 values” for “IC50”, “correspond” for “corresponded”
as §7, §8
as §9, with “evaluated. Drug synergy was statistically defined by CI values less than 1, antagonism by CI>1 and additive effect by CI equal to 1.” for “evaluated.”

MOLM-13 cells = experiment: Example 6 combination screen: 300 nM EPZ-5676 pre-treatment, second compound 72 h, ATPLite, IC50 shift; conditions: 300 nM EPZ-5676 pre-treatment (4 + 3 days) vs DMSO, then 2nd compound 72 h, IC50 shift of 2nd compound
Procedure: (§10) Cells were then equilibrated in incubators for 24 hours before treatment with a second compound. Treated assay plates were incubated with a second compound for 72 hours. After this time, plates were developed for endpoint analysis using ATPLite to measure ATP content, which is used as an indicator of cell viability.
(§11) “N/D” means that IC50 of the second compound could not be determined for both conditions.

SKM-1 cells = experiment: as above; conditions: SKM-1 cells; 300 nM EPZ-5676 pre-treatment (4 + 3 days) vs DMSO, then 2nd compound 72 h; ATPLite; IC50 shift of 2nd compound
Procedure: as §10, §11

## Cc1sc2c(c1C)C(c1ccc(Cl)cc1)=N[C@@H](CC(=O)OC(C)(C)C)c1nnc(C)n1-2 [JQ1]
MOLM-13 (MLL-AF9) cells; 7 Day Cotreatment Model
  Combination effect with Compound A2 (Table 4): Additive (additive effect by CI equal to 1)
MOLM-13 (MLL-AF9) cells
  Combination effect with Compound A2 (Table 2): Additive (additive effect by CI equal to 1)
MV4-11 (MLL-AF4) cells
  Combination effect with Compound A2 (Table 4): Additive (additive effect by CI equal to 1)
  Combination effect with Compound A2 (Table 2): Additive (additive effect by CI equal to 1)

## CC1(C)CCC(c2ccc(Cl)cc2)=C(CN2CCN(c3ccc(C(=O)NS(=O)(=O)c4ccc(N[C@H](CCN5CCOCC5)CSc5ccccc5)c(S(=O)(=O)C(F)(F)F)c4)cc3)CC2)C1 [Navitoclax]
MOLM-13 (MLL-AF9) cells
  Combination effect with Compound A2: synergy
MV4-11 (MLL-AF4) cells
  Combination effect with Compound A2: synergy

## CC[C@@H]1C(=O)N(C)c2cnc(Nc3ccc(C(=O)N[C@H]4CC[C@H](N5CCN(CC6CC6)CC5)CC4)cc3OC)nc2N1C(C)C [Volasertib]
MV4-11 (MLL-AF4) cells
  Combination effect with Compound A2 (Table 5): Antagonstic

## c1ccc2c(CCNc3ccc(Nc4ccncc4)cc3)c[nH]c2c1 [JNJ 26854165]
MOLM-13 cells
  Summary of Combination Studies: MOLM-13: Synergy (considered synergistic if the IC50 value of the second compound decreased by 2-fold or more when EPZ-5676 was added as compared to the DMSO control)

## Cc1cc(Cl)cc(OCCn2cc(F)cn2)c1-c1nc(N)nc2c1CN(C(=O)NCC(C)(F)F)C2 [BEP800]
MOLM-13 cells
  Summary of Combination Studies: MOLM-13: Synergy (considered synergistic if the IC50 value of the second compound decreased by 2-fold or more when EPZ-5676 was added as compared to the DMSO control)

## O=c1cc(N2CCOCC2)oc2c(-c3cccc4c3sc3ccccc34)cccc12 [NU 7441]
MOLM-13 cells
  Summary of Combination Studies: MOLM-13: Synergy (considered synergistic if the IC50 value of the second compound decreased by 2-fold or more when EPZ-5676 was added as compared to the DMSO control)

## Cn1cncc1[C@@](N)(c1ccc(Cl)cc1)c1ccc2c(c1)c(-c1cccc(Cl)c1)cc(=O)n2C [Tipifarnib]
MV4-11 (MLL-AF4) cells
  Combination effect with Compound A2 (Table 5): Synergy (Drug synergy was statistically defined by CI values less than 1)

## O=C1c2c(O)ccc(O)c2C(=O)c2c(NCCNCCO)ccc(NCCNCCO)c21 [Mitoxantrone]
MV4-11 (MLL-AF4) cells
  Combination effect with Compound A2: Synergy (A combination index less than one indicates synergy)

## CC(=O)O/N=C1\C(=O)N(Cc2cc(Cl)ccc2Cl)c2ccc(Cl)cc21 [LDN 57444]
MOLM-13 cells
  Summary of Combination Studies: MOLM-13: Synergy (considered synergistic if the IC50 value of the second compound decreased by 2-fold or more when EPZ-5676 was added as compared to the DMSO control)

## CN(C)CC[C@H](CSc1ccccc1)Nc1ccc(S(=O)(=O)NC(=O)c2ccc(N3CCN(Cc4ccccc4-c4ccc(Cl)cc4)CC3)cc2)cc1[N+](=O)[O-] [ABT-737]
SKM-1 cells
  Summary of Combination Studies: SKM-1: Synergy (considered synergistic if the IC50 value of the second compound decreased by 2-fold or more when EPZ-5676 was added as compared to the DMSO control)

## COCc1c(C(C)C)nc(C(C)C)c(/C=C/[C@@H](O)C[C@@H](O)CC(=O)O)c1-c1ccc(F)cc1 [Cerivastatin Sodium]
SKM-1 cells
  Summary of Combination Studies: SKM-1: Synergy (considered synergistic if the IC50 value of the second compound decreased by 2-fold or more when EPZ-5676 was added as compared to the DMSO control)

## COc1ccc(CCc2nc3cc(-c4c(C)noc4C)ccc3n2C[C@H](C)N2CCOCC2)cc1Cl [SGC-CBP30]
SKM-1 cells
  Summary of Combination Studies: SKM-1: Synergy (considered synergistic if the IC50 value of the second compound decreased by 2-fold or more when EPZ-5676 was added as compared to the DMSO control)

## O=C(Nc1cccc(Nc2ncc(Br)c(NCCc3cnc[nH]3)n2)c1)N1CCCC1 [BX-912]
SKM-1 cells
  Summary of Combination Studies: SKM-1: Synergy (considered synergistic if the IC50 value of the second compound decreased by 2-fold or more when EPZ-5676 was added as compared to the DMSO control)

## COc1cc2c(cc1-c1c(C)noc1C)ncc1[nH]c(=O)n([C@H](C)c3ccccn3)c12 [IBET-151]
MOLM-13 (MLL-AF9) cells
  Combination effect with Compound A2 (Table 2): Synergy (Drug synergy was statistically defined by CI values less than 1)
MV4-11 (MLL-AF4) cells
  Combination effect with Compound A2: Synergy (A combination index less than one indicates synergy)
  Combination effect with Compound A2 (Table 2): Synergy (Drug synergy was statistically defined by CI values less than 1)

## CCCc1cc2c(N3CCN(C4=NCC(C)(C)S4)CC3)ncnc2s1 [Menin-MLL inhibitor MI-2]
MOLM-13 (MLL-AF9) cells; 7 Day Cotreatment Model
  Combination effect with Compound A2 (Table 4): Synergy (Drug synergy was statistically defined by CI values less than 1)
MV4-11 (MLL-AF4) cells
  Combination effect with Compound A2 (Table 4): Synergy (Drug synergy was statistically defined by CI values less than 1)

## C[C@H]1C[C@@H]2[C@H]([C@@H](O)C[C@@]3(C)[C@H]2CC[C@]3(O)C(=O)CO)[C@@]2(C)C=CC(=O)C=C12 [Methylprednisolone]
SKM-1 cells
  Summary of Combination Studies: SKM-1: Synergy (considered synergistic if the IC50 value of the second compound decreased by 2-fold or more when EPZ-5676 was added as compared to the DMSO control)

## C=C[C@@]1(C)CC(=O)[C@]2(O)[C@@]3(C)[C@@H](O)CCC(C)(C)[C@@H]3[C@H](OC(=O)CCN(C)C)[C@H](OC(C)=O)[C@@]2(C)O1.Cl [NKH 477]
SKM-1 cells
  Summary of Combination Studies: SKM-1: Synergy (considered synergistic if the IC50 value of the second compound decreased by 2-fold or more when EPZ-5676 was added as compared to the DMSO control)

## C#Cc1cccc(Nc2ncnc3cc(OCCOC)c(OCCOC)cc23)c1 [Erlotinib Hydrochloride]
SKM-1 cells
  Summary of Combination Studies: SKM-1: Synergy (considered synergistic if the IC50 value of the second compound decreased by 2-fold or more when EPZ-5676 was added as compared to the DMSO control)

## NC1(c2ccc(-c3nc4ccn5c(=O)[nH]nc5c4cc3-c3ccccc3)cc2)CCC1 [MK2206]
SKM-1 cells
  Summary of Combination Studies: SKM-1: Synergy (considered synergistic if the IC50 value of the second compound decreased by 2-fold or more when EPZ-5676 was added as compared to the DMSO control)
MOLM-13 (MLL-AF9) cells; MOLM13, 7 Day Cotreatment Model
  Combination effect with Compound A2 (Table 5): Additive (additive effect by CI equal to 1)

## CC(C)(C)c1cc(NC(=O)Nc2ccc(-c3cn4c(n3)sc3cc(OCCN5CCOCC5)ccc34)cc2)no1 [Quizartinib]
MV4-11 (MLL-AF4) cells
  Combination effect with Compound A2: synergy

## C=C(c1ccc(C(=O)O)cc1)c1cc2c(cc1C)C(C)(C)CCC2(C)C [Bexarotene]
SKM-1 cells
  Summary of Combination Studies: SKM-1: Synergy (considered synergistic if the IC50 value of the second compound decreased by 2-fold or more when EPZ-5676 was added as compared to the DMSO control)

## N[C@@H]1C[C@H]1c1ccccc1 (racemic) [Tranylcypromine]
MOLM-13 (MLL-AF9) cells; 7 Day Cotreatment Model
  Combination effect with Compound A2 (Table 4): Strong Synergy
MOLM-13 (MLL-AF9) cells
  Combination effect with Compound A2: synergy
MV4-11 (MLL-AF4) cells
  Combination effect with Compound A2 (Table 4): Synergy (Drug synergy was statistically defined by CI values less than 1)
  Combination effect with Compound A2: synergy

## Nc1ncn([C@H]2C[C@H](O)[C@@H](CO)O2)c(=O)n1 [Decitabine]
MOLM-13 (MLL-AF9) cells
  Combination effect with Compound A2 (Table 2): Synergy (Drug synergy was statistically defined by CI values less than 1)
MV4-11 (MLL-AF4) cells
  Combination effect with Compound A2 (Table 2): Synergy (Drug synergy was statistically defined by CI values less than 1)

## CCN(CC)CCNC(=O)c1c(C)[nH]c(/C=C2\C(=O)Nc3ccc(F)cc32)c1C [Sunitinib Malate]
SKM-1 cells
  Summary of Combination Studies: SKM-1: 2.0
